Assay results from US6906205B2, “Spiro and dispiro 1,2,4-trioxolane antimalarials” (Medicines for Malaria Venture MMV, priority 2002, dated 2005).

Test system: ANKA strain of P. berghei
Test: single dose STI in vivo screen in infected mice
Set-up: species or system Plasmodium berghei
Settings: for Activity (%) po / Activity (%) sc / Activity (%) SSVpo / Activity (%) 3 mg/kg SSV po / Activity (%) 10 mg/kg SSV po: percent reduction in parasitemia day 3 post-infection; for Activity (%) po / Survival (days) po: single 10 mg/kg po in 3% ethanol and 7% Tween 80; for Activity (%) po / Activity (%) sc / Activity (%) SSVpo: mice; for Activity (%) sc / Survival (days) sc: single 10 mg/kg sc in 3% ethanol and 7% Tween 80; for Activity (%) SSVpo: single po dose in standard suspending vehicle (SSV); for Survival (days) SSVpo: single po dose in SSV; for Survival (days) SSVpo / Survival (days) po / Survival (days) sc: untreated control 5.6 ± 0.3; for Activity (%) 3 mg/kg SSV po / Survival (days) 3 mg/kg SSV po: single 3 mg/kg po in SSV; for Activity (%) 10 mg/kg SSV po / Survival (days) 10 mg/kg SSV po: single 10 mg/kg po in SSV
Procedure: In the single dose STI in vivo screen, Moro SPF or NMRI mice infected with the ANKA strain of P. berghei (groups of 3-5 mice) were treated on day one post-infection with trioxolanes dissolved or suspended in 3% ethanol and 7% Tween 80. […] SSV consists of 0.5% w/v CMC, 0.5% v/v benzyl alcohol, 0.4% v/v Tween 80, and 0.9% w/v sodium chloride in water. Antimalarial activity was measured by percent reduction in parasitemia on day three post-infection and survival times compared to an untreated control group. Survival to day 30 post-infection is considered to be a cure. […] Other factors influencing antimalarial activity include the stability of carbon radicals formed by β-scission subsequent to the initial electron transfer to the peroxide bond and the influence of steric effects remote from the peroxide bond on the interactions between carbon radicals and potential drug targets.

CC(C)(O)[C@H]1CC[C@]2(CC1)OOC1(O2)C2CC3CC(C2)CC1C3 (stereo partly shown) [OZ108]
Activity (%) po: 0/0/0% | Activity (%) sc: 0/0/0% | Activity (%) SSVpo: 0/0/0% | Survival (days) SSVpo: 5.0 days

O=C(COc1ccc(Cl)cc1)N1CCC2(CC1)OOC1(O2)C2CC3CC(C2)CC1C3 (stereo not shown) [OZ101]
Activity (%) po: 44% | Activity (%) sc: 99.97% | Activity (%) SSVpo: 0% | Survival (days) po: 6.3 days | Survival (days) sc: 13 days | Survival (days) SSVpo: 5.3 days

O=C(NC[C@H]1CC[C@]2(CC1)OO[C@]1(O2)C2CC3CC(C2)CC1C3)c1cnccn1 [OZ356]
Activity (%) 3 mg/kg SSV po: 87% | Activity (%) 10 mg/kg SSV po: 99.64% | Survival (days) 3 mg/kg SSV po: 8.0 days | Survival (days) 10 mg/kg SSV po: 8.6 days

O=C(NC[C@H]1CC[C@]2(CC1)OO[C@]1(O2)C2CC3CC(C2)CC1C3)N1CCOCC1 [OZ272]
Activity (%) 3 mg/kg SSV po: 49% | Activity (%) 10 mg/kg SSV po: 98%

Cn1nnnc1S(=O)(=O)C[C@H]1CC[C@]2(CC1)OO[C@]1(O2)C2CC3CC(C2)CC1C3 [OZ332]
Activity (%) 3 mg/kg SSV po: 0% | Activity (%) 10 mg/kg SSV po: 8%

N=C(N)NC(=O)C[C@H]1CC[C@]2(CC1)OO[C@]1(O2)C2CC3CC(C2)CC1C3 [OZ341]
Activity (%) 3 mg/kg SSV po: 32% | Activity (%) 10 mg/kg SSV po: 97% | Survival (days) 10 mg/kg SSV po: 8.0 days

Cn1nnnc1SC[C@H]1CC[C@]2(CC1)OO[C@]1(O2)C2CC3CC(C2)CC1C3 [OZ331]
Activity (%) 3 mg/kg SSV po: 66% | Activity (%) 10 mg/kg SSV po: 99.47% | Survival (days) 10 mg/kg SSV po: 9.0 days

O=C(NC[C@H]1CC[C@]2(CC1)OO[C@]1(O2)C2CC3CC(C2)CC1C3)[C@@H]1CCCN1 [OZ337]
Activity (%) 3 mg/kg SSV po: 97% | Activity (%) 10 mg/kg SSV po: 99.92% | Survival (days) 3 mg/kg SSV po: 11.6 days | Survival (days) 10 mg/kg SSV po: 8.6 days

NC(=O)c1cncn1C[C@H]1CC[C@]2(CC1)OO[C@]1(O2)C2CC3CC(C2)CC1C3 [OZ321]
Activity (%) 3 mg/kg SSV po: 64% | Activity (%) 10 mg/kg SSV po: 99.77% | Survival (days) 10 mg/kg SSV po: 14.0 days

CCNC(=O)NC[C@H]1CC[C@]2(CC1)OO[C@]1(O2)C2CC3CC(C2)CC1C3 [OZ291]
Activity (%) 3 mg/kg SSV po: 34% | Activity (%) 10 mg/kg SSV po: 98% | Survival (days) 10 mg/kg SSV po: 8.0 days

N[C@H]1CC[C@]2(CC1)OOC1(O2)C2CC3CC(C2)CC1C3 (stereo partly shown) [OZ137]
Activity (%) po: 0% | Activity (%) sc: 61% | Activity (%) SSVpo: 6% | Survival (days) SSVpo: 6.3 days

N[C@H]1CCN(C(=O)C[C@H]2CC[C@]3(CC2)OO[C@]2(O3)C3CC4CC(C3)CC2C4)C1 [OZ338]
Activity (%) 3 mg/kg SSV po: 99.80% | Activity (%) 10 mg/kg SSV po: 99.93% | Survival (days) 10 mg/kg SSV po: 9.8 days

CCOC(=O)CCC(=O)N1CCC2(CC1)OOC1(O2)C2CC3CC(C2)CC1C3 (stereo not shown) [OZ53]
Activity (%) po: 9% | Activity (%) sc: 58% | Survival (days) po: 6.0 days | Survival (days) sc: 6.3 days

c1c[nH]c(C[C@H]2CC[C@]3(CC2)OO[C@]2(O3)C3CC4CC(C3)CC2C4)n1 [OZ355]
Activity (%) 3 mg/kg SSV po: 0% | Activity (%) 10 mg/kg SSV po: 71% | Survival (days) 3 mg/kg SSV po: 6.2 days | Survival (days) 10 mg/kg SSV po: 7.0 days

O=C(Nc1ccc(Cl)cc1)N1CCC2(CC1)OOC1(O2)C2CC3CC(C2)CC1C3 (stereo not shown) [OZ192]
Activity (%) po: 38% | Activity (%) sc: 99.98% | Activity (%) SSVpo: 45% | Survival (days) po: 6.0 days | Survival (days) sc: 13.7 days | Survival (days) SSVpo: 7.0 days

O=S(=O)(C[C@H]1CC[C@]2(CC1)OO[C@]1(O2)C2CC3CC(C2)CC1C3)c1cccc[n+]1[O-] [OZ324]
Activity (%) 10 mg/kg SSV po: 60%

CS(=O)(=O)N(CC(N)=O)C[C@H]1CC[C@]2(CC1)OO[C@]1(O2)C2CC3CC(C2)CC1C3 [OZ308]
Activity (%) 3 mg/kg SSV po: 30% | Activity (%) 10 mg/kg SSV po: 86% | Survival (days) 10 mg/kg SSV po: 7.8 days

O=C(NC[C@H]1CC[C@]2(CC1)OOC1(O2)C2CC3CC(C2)CC1C3)c1ccc(O)nc1 (stereo partly shown) [OZ282]
Activity (%) 3 mg/kg SSV po: 53% | Survival (days) 10 mg/kg SSV po: 8.3 days

CCOC(=O)CCNCC1CCC2(CC1)OOC1(O2)C2CC3CC(C2)CC1C3.Cc1ccc(S(=O)(=O)O)cc1 (stereo not shown) [OZ318]
Activity (%) 3 mg/kg SSV po: 29% | Activity (%) 10 mg/kg SSV po: 88%

CS(=O)(=O)C1CCN(C(=O)C[C@H]2CC[C@]3(CC2)OO[C@]2(O3)C3CC4CC(C3)CC2C4)CC1 [OZ345]
Activity (%) 3 mg/kg SSV po: 0% | Activity (%) 10 mg/kg SSV po: 75% | Survival (days) 3 mg/kg SSV po: 6.6 days | Survival (days) 10 mg/kg SSV po: 9.2 days
